The test system of this experiment is MAO-A. The experiment is described as follows: MAO-A inhibition in domestic pig brain nucleus free homogenate (14C-5-HT substrate). The class given is in vivo. Particulars: p. os 10 mg, 96 h.

Protocol: In further experiments we determined in domestic pigs The MAO activity in the brain and the platelet MAO-B activity.
The experiments were carried out on female (big white) domestic pigs, weighing 25-30 kg. The pigs were caged separately during the experiments, and the same food was supplied, which was used formerly.
Blood samples were taken for the determination of MAO-B activity at: 0, 3, 6, 24, 48, 72 and 96 h. At 96 h after blood sampling the pigs were killed and the MAO-B and MAO-A activity was determined in their dissected brain.
The times of blood sampling were at: 0, 3, 6, 24 and 48 h. The transdermal preparations were removed at 24 h. […] The pigs were killed at 48 h and MAO-A and MAO-B activity of the brain was determined.
Blood samples were taken at: 0, 3, 6, 24, 48 and 72 h. The patches were removed at 48 h and the whole procedure described at group 2 was accomplished.
MAO activity was measured radiometrically according to the methods of Wurtman and Axelrod (Biochem. Pharmacol. 12. 1414-19; 1963) with a slight modification (K. Magyar in: Monoamine Oxidases and their Selective Inhibition. Ed.: K. Magyar, Pergamon Press, Akademiai Kiado, Budapest 11-21; 1980).

Turning to `C#CCN(C)[C@H](C)Cc1ccccc1` [(-)-Deprenyl], the “inhibition of MAO-activity (%) as compared to the control, brain, 14C-5-HT” value was found to be 20.14 ± 6.0%.
